Measured values published in patent publication US11166942B2 (PRAXIS BIOTECH LLC, priority 2018, dated 2021).

Tests used:
[1] = tested on: CT26 tumor-bearing Balb/c mice, gastrocnemius; test: Cachexia-induced muscle atrophy; assay type: in vivo, mouse; settings: 10 mg/kg daily oral gavage for 12 days
Protocol: Wild type six-weeks-old male Balb/c mice obtained from the vivarium Fundación Ciencia & Vida Chile (Santiago, Chile) were used. Mice were housed in independent plastic cages in a room maintained at 25° C. with a 12-h:12-h light:dark cycle.
1×10^6 CT26 colon carcinoma cell line (ATCC #CRL-2638, ATCC Manassas, Va.) were injected subcutaneously in the right lower flank of each animal for induction of cachexia-induced muscle atrophy as described (Nat Commun. 2012 Jun. 12; 3:896). Non-injected animals were used as controls. At day 7 post tumor-cell injection, animals were randomized into two groups and treated with 10 mg/kg of test compound formulated in 50% Polyethylene glycol (PEG-400) in distilled water, or with vehicle (50% PEG-400 in distilled water) by daily oral gavage for 12 days.
After 12 treatments, animals were sacrificed and gastrocnemius were removed from both hindlimbs. Muscles derived from non-tumor-bearing mice were used as control.
Upon collection, muscles were immediately frozen in liquid nitrogen and then stored at −80° C. The frozen muscles were then homogenized with a T 10 basic ULTRA-TURRAX (IKa) in ice-cold buffer lysis (Cell Signaling 9803) and protease and phosphatase inhibitors (Roche). Lysates were sonicated for 3 min and centrifuged at 13,000 rpm for 20 minutes at 4° C. Protein concentration in supernatants was determined using BCA Protein Assay Kit (Pierce). Equal amount of protein was loaded on SDS-PAGE gels. […]
ATF4 (Abcam), Atrogin-1 (ECM Biosciences), MuRF-1 (Santa Cruz Biotechnology) and β-actin (Sigma-Aldrich) antibodies were used as primary antibodies. […] Quantification of protein bands was done by densitometry using ImageJ software.
Expression of ATF4 and the muscle atrophy markers, Atrogin-1 and MuRF-1, of gastrocnemius derived from control and CT26 tumor-bearing mice treated with vehicle or compound 58 are shown in FIG. 10A. […] The levels were normalized to β-actin expression and percentage was calculated as the percent relative to the expression of non-tumor-bearing mice (Control) which corresponds to 100%. […]

[2] = tested on: MEF cells; test: Frontotemporal dementia cellular model (progranulin knockdown in MEF cells); assay type: cell-based; settings: PGRN siRNA mix, 1 μM or 5 μM, 48 hours (FIG. 13)
Protocol: MEF cells were maintained at 37° C. and 5% CO2 in DMEM supplemented with 10% fetal bovine serum (FBS), 2 mM L-glutamine, 100 U/ml penicillin, and 100 μg/ml streptomycin. After reaching 80% of confluence, cells were detached and seeded on 6-well plates in complete media at a density of 3×10^5 cells/well and allowed to recover for 48 h. To perform a knockdown expression of the progranulin protein, cells were then washed three times with PBS and treated with small interference RNA (siRNA) mix, that target progranulin (PGRN) gene (Qiagen FlexiTube siRNA mix, Cat No 1027416), according to manufacturer instructions.
Transfection media with siRNA mix was supplemented with OPTIMEM medium alone (GRN7) or 1 μM or 5 μM compound 58 in OPTIMEM medium. Transfection media without siRNA mix (Veh) and cells cultured in OPTIMEM medium alone (Unt) were used as controls.
After 48 hours treatment, culture media were removed and cells were lysed with SDS-PAGE lysis buffer. Lysates were transferred to 1.5 ml tubes and sonicated for 3 min. Total protein amount was quantified using BCA Protein Assay Kit (Pierce). Equal amount of proteins (30 μg) was loaded on SDS-PAGE gels. […]
PGRN (R&D Systems) and β-actin (Sigma-Aldrich) antibodies were used as primary antibodies. […] Quantification of protein bands was done by densitometry using ImageJ software. […]

Structure (SMILES): O=C(NN1CCN(C[C@@H](O)COc2ccc(Cl)c(F)c2)CC1)c1ccc2cc(Cl)ccc2n1 [Compound 58, (R)-6-chloro-N-(4-(3-(4-chloro-3-fluorophenoxy)-2-hydroxypropyl)piperazin-1-yl)quinoline-2-carboxamide]
- ATF4 expression in gastrocnemius ([1]; vs vehicle (FIG. 10B)): reduction
- Atrogin-1 expression in gastrocnemius ([1]; vs vehicle (FIG. 10C)): reduction
- MuRF-1 expression in gastrocnemius ([1]; vs vehicle (FIG. 10D)): reduction
- expression of PGRN (progranulin) in siRNA knockdown condition [2]: increased expression of progranulin
